Laboratory results from patent publication US8101605B2, “SHIP1 modulators and methods related thereto” (Aquinox Pharmaceuticals Inc., priority 2009, dated 2012).

Columns and labels:
His-hSHIP1 enzyme = target: T1, His-hSHIP1 enzyme (Homo sapiens, UniProt Q92835); assay: His-hSHIP1 phosphatase activity assay (IP4 substrate, Biomol Green); type: biochemical; conditions: percentage increase relative to background; concentrations ≦300 μM
T1 sequence (Q92835 1-1189): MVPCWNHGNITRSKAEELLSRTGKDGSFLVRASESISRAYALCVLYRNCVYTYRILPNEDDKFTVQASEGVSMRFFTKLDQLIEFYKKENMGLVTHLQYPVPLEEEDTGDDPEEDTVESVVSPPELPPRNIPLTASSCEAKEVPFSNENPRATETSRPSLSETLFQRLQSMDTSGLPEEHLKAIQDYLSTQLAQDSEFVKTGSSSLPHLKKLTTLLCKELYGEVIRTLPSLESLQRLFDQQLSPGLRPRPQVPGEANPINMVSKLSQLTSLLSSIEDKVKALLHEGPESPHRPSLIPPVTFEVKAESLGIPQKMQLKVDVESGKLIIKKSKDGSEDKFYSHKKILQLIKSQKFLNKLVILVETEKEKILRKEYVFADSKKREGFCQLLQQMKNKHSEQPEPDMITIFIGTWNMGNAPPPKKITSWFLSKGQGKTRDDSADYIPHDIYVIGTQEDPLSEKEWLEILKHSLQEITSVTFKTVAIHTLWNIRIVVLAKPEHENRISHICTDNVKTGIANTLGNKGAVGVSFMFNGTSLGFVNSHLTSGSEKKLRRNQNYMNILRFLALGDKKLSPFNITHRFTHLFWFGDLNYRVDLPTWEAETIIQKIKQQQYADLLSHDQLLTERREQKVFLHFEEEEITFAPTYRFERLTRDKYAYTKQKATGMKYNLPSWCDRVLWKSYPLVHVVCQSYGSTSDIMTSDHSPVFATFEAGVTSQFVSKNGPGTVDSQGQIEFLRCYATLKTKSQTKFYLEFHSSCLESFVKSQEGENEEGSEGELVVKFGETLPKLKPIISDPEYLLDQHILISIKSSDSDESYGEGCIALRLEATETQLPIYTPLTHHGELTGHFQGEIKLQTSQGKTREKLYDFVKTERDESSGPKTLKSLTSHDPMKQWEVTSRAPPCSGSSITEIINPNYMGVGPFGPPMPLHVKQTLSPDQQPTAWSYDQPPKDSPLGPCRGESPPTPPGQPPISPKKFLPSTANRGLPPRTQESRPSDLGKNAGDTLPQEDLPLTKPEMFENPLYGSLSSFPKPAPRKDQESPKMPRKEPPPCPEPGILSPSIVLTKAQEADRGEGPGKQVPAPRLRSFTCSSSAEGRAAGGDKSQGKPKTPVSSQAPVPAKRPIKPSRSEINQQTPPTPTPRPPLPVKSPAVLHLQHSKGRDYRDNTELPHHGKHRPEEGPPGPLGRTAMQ
Experimental: Test compounds were dissolved in 95% ethanol to form stock solutions. Before screening, the stock solutions were diluted with Phosphatase Assay Buffer (20 mM Tris-HCL, 10 mM MgCl2 pH 7.5, 0.02% Tween 20) to form working assay solutions that contained 10% ethanol. The assay was carried out on 96-well microtiter plates using a modified procedure of that reported by Ong et al., Blood 110, 1942-1949, 2007 and Yang et al., Org Lett 7, 1073-1076, 2005, both of which references are incorporated herein by reference in their entirety.
Each reaction contained 5 μL of His-hSHIP1 enzyme (15-20 ng), 10 μL of the substrate, 1,3,4,5-inositol tetrakisphosphate (IP4; 50 μM final), 5 μL of Phosphatase Assay Buffer, and 5 μL of test compound at various concentrations in 10% ethanol (0-300 μM final). Control blanks were also prepared by replacing His-hSHIP1 enzyme, IP4, or test compounds with Phosphatase Assay Buffer. After adding the reaction components in a 96-well microtiter plate on ice, the reaction was mixed by briefly shaking the plate vigorously. The reaction was then incubated at 37° C. for 15 min with gentle shaking followed by addition of 100 μL of Biomol Green Reagent (BIOMOL, PA, USA) to terminate the reaction. The free phosphate released from IP4 by His-hSHIP1 bound to the Biomol Green Reagent, turning the solution green in colour. After incubating the mixture for 20 min at room temperature for colour development, the absorbance was read with a SpectraMax Plus 96-well plate reader (Molecular Devices, Sunnyvale, Calif., USA) at a wavelength of 650 nm.
Percent (%) activation in Table 2 is expressed as a percentage increase relative to background. Scoring is expressed as follows: + (<50%); ++ (≧50% but <65%); +++ (≧65%).

OPM2 cells = assay: Inhibition of OPM2 proliferation (BrdU ELISA); type: cell-based; conditions: Homo sapiens, OPM-2, 72 hours, read-out: Scoring: % inhibition of OPM2 proliferation
Experimental: Test compounds were dissolved in 100% DMSO to form stock solutions. Prior to screening, the stock solutions were diluted with complete media (RPMI 1640 containing 10% fetal calf serum, 2 mM L-glutamine and 50 U/mL each of penicillin and streptomycin) to form working assay solutions that contain 0.2% DMSO. The assay was initiated by adding 30,000 OPM2 cells (in 50 μL) to 50 μL of representative compounds at concentrations ranging from 0.03 to 30 μM. The cells were incubated for 72 hours in a humidified CO2 incubator with the addition of 10 μM BrdU for the final 6 hours according to the directions from the Roche BrdU Cell Proliferation ELISA kit used to detect proliferation (Roche, Cat. No. 11 647 229 001). OPM2 cells incubated in 0.1% DMSO in complete media were used as a negative control and the PI3Kα Inhibitor 2 (3-[4-(4-morpholinyl)thieno[3,2-d]pyrimidin-2-yl-phenol, Cayman Chemical, Cat. No. 10010177) was used as a positive control for inhibition of proliferation. At the end of the incubation, the plate containing the labeled cells was centrifuged, the supernatant removed and the cell pellets dried at 60° C. for 1 hour and stored at 4° C. until further analysis. Analysis of BrdU incorporation was done according to the manufacturer's instructions.

Scoring: percent (%) activation of His-hSHIP1 enzyme (His-hSHIP1 enzyme) | Structure (SMILES) | inhibition at 30 µM (OPM2 cells)
+ (<50%) | CNC(=O)c1cc(C(=O)NC)c2c(c1)S(=O)(=O)C[C@@H]1[C@@]3(C)CCCC(C)(C)[C@@H]3CC[C@@]21C [compound 86, (1R,10R,11S,16S)-1,3-N,5-N,11,15,15-hexamethyl-8,8-dioxo-8λ^6-thiatetracyclo[8.8.0.0^2,7.0^11,16]octadeca-2,4,6-triene-3,5-dicarboxamide] | 
+ (<50%) | CC1(C)CCC[C@]2(C)[C@H]3CS(=O)(=O)c4cc(O)cc(C(=O)N5CCOCC5)c4[C@]3(C)CC[C@@H]12 [compound 88, (1R,10R,11S,16S)-5-hydroxy-1,11,15,15-tetramethyl-3-[(morpholin-4-yl)carbonyl]-8λ^6-thiatetracyclo-[8.8.0.0^2,7.0^11,16]octadeca-2,4,6-triene-8,8-dione] | 
+ (<50%) | COC(=O)CNC(=O)c1cc(O)cc2c1[C@]1(C)CC[C@H]3C(C)(C)CCC[C@]3(C)[C@H]1CS2(=O)=O [compound 90, methyl 2-{[(1R,10R,11S,16S)-5-hydroxy-1,11,15,15-tetramethyl-8,8-dioxo-8λ^6-thiatetracyclo[8.8.0.0^2,7.0^11,16]octadeca-2,4,6-trien-3-yl]formamido}acetate] | 
+ (<50%) | CC1(C)CCC[C@]2(C)[C@H]3CS(=O)(=O)c4cc(O)cc(C(=O)NCC(=O)O)c4[C@]3(C)CC[C@@H]12 [compound 91, 2-{[(1R,10R,11S,16S)-5-hydroxy-1,11,15,15-tetramethyl-8,8-dioxo-8λ^6-thiatetracyclo[8.8.0.0^2,7.0^11,16]octadeca-2,4,6-trien-3-yl]formamido}acetic acid] | 
+ (<50%) | CC1(C)CCC[C@]2(C)[C@H]3CS(=O)(=O)c4cc(C(=O)NCC(=O)O)cc(O)c4[C@]3(C)CC[C@@H]12 [compound 93, 2-{[(1R,10R,11S,16S)-3-hydroxy-1,11,15,15-tetramethyl-8,8-dioxo-8λ^6-thiatetracyclo[8.8.0.0^2,7.0^11,16]octadeca-2,4,6-trien-5-yl]formamido}acetic acid] | 
+ (<50%) | CN1CCN(C(=O)c2cc(O)cc3c2[C@]2(C)CC[C@H]4C(C)(C)CCC[C@]4(C)[C@H]2CS3(=O)=O)CC1 [compound 94, (1R,10R,11S,16S)-5-hydroxy-1,11,15,15-tetramethyl-3-[(4-methylpiperazin-1-yl)carbonyl]-8λ^6-thiatetracyclo[8.8.0.0^2,7.0^11,16]octadeca-2,4,6-triene-8,8-dione] | 
+ (<50%) | CONC(=O)c1cc(O)cc2c1[C@]1(C)CC[C@H]3C(C)(C)CCC[C@]3(C)[C@H]1CS2(=O)=O [compound 95, (1R,10R,11S,16S)-5-hydroxy-N-methoxy-1,11,15,15-tetramethyl-8,8-dioxo-8λ^6-thiatetracyclo[8.8.0.0^2,7.0^11,16]octadeca-2,4,6-triene-3-carboxamide] | 
+ (<50%) | CONC(=O)c1cc(O)c2c(c1)S(=O)(=O)C[C@@H]1[C@@]3(C)CCCC(C)(C)[C@@H]3CC[C@@]21C [compound 96, (1R,10R,11S,16S)-3-hydroxy-N-methoxy-1,11,15,15-tetramethyl-8,8-dioxo-8λ^6-thiatetracyclo[8.8.0.0^2,7.0^11,16]octadeca-2,4,6-triene-5-carboxamide] | 
+ (<50%) | CC1(C)CCC[C@]2(C)[C@H]3CS(=O)(=O)c4cc(C(=O)N5CCC(C(=O)O)CC5)cc(O)c4[C@]3(C)CC[C@@H]12 [compound 98, 1-{[(1R,10R,11S,16S)-3-hydroxy-1,11,15,15-tetramethyl-8,8-dioxo-8λ^6-thiatetracyclo[8.8.0.0^2,7.0^11,16]octadeca-2,4,6-trien-5-yl]carbonyl}piperidine-4-carboxylic acid] | 
+ (<50%) | CC1(C)CCC[C@]2(C)[C@H]3CS(=O)(=O)c4cc(O)cc(C(=O)N5CCNCC5)c4[C@]3(C)CC[C@@H]12 [compound 100, (1R,10R,11S,16S)-5-hydroxy-1,11,15,15-tetramethyl-3-[(piperazin-1-yl)carbonyl]-8λ^6-thiatetracyclo[8.8.0.0^2,7.0^11,16]octadeca-2,4,6-triene-8,8-dione] | 
+ (<50%) | COc1cc(OCC(=O)O)cc2c1[C@]1(C)CC[C@H]3C(C)(C)CCC[C@]3(C)[C@H]1CS2(=O)=O [compound 104, 2-{[(1R,10R,11S,16S)-3-methoxy-1,11,15,15-tetramethyl-8,8-dioxo-8^6-thiatetracyclo[8.8.0.0^2,7.0^11,16]octadeca-2,4,6-trien-5-yl]oxy}acetic acid] | 
+ (<50%) | CC1(C)CCC[C@]2(C)[C@H]3CS(=O)(=O)c4cc(OCC(=O)O)cc(O)c4[C@]3(C)CC[C@@H]12 [compound 105, 2-{[(1R,10R,11S,16S)-3-hydroxy-1,11,15,15-tetramethyl-8,8-dioxo-8^6-thiatetracyclo[8.8.0.0^2,7.0^11,16]octadeca-2,4,6-trien-5-yl]oxy}acetic acid] | 
+ (<50%) | COc1cc(O)c(CN2CCOCC2)c2c1[C@]1(C)CC[C@H]3C(C)(C)CCC[C@]3(C)[C@H]1CS2(=O)=O [compound 106, (1R,10R,11S,16S)-5-hydroxy-3-methoxy-1,11,15,15-tetramethyl-6-(morpholin-4-ylmethyl)-8^6-thiatetracyclo[8.8.0.0^2,7.0^11,16]octadeca-2,4,6-triene-8,8-dione] | 
 | CC1(C)CCC[C@]2(C)[C@H]3CS(=O)(=O)c4cc(OCC(=O)O)cc(OCC(=O)O)c4[C@]3(C)CC[C@@H]12 [compound 108, 2-{[(1R,10R,11S,16S)-3-(carboxymethoxy)-1,11,15,15-tetramethyl-8,8-dioxo-8^6-thiatetracyclo[8.8.0.0^2,7.0^11,16]octadeca-2,4,6-trien-5-yl]oxy}acetic acid] | < 25%
